The structures appear in SMILES notation.

A short description of this test: Inhibition of HCV NS5B polymerase by RdRp-catalyzed elongation assay. The arrangement: species or system Hepacivirus hominis.
`CCc1ccc(/C=C2\SC(NC(C(=O)O)c3ccc(Br)cc3)=NC2=O)o1` (stereo not drawn): the IC50 (usually the concentration at which inhibition is half-maximal) turned out to be 6 µM. The result for `CCc1ccc(/C=C2\SC(NC(C(=O)O)c3ccc(C(F)(F)F)cc3)=NC2=O)o1` (stereo not drawn) reads 21 µM; that for `CCc1ccc(/C=C2\SC(NC(C(=O)O)c3ccc4ccccc4c3)=NC2=O)o1` (stereo not drawn), 14 µM; that for `CCc1ccc(/C=C2\SC(NC(C(=O)O)c3ccc(C)cc3C)=NC2=O)o1` (stereo not drawn), 12 µM. The result for `CCc1ccc(/C=C2\SC(NC(C(=O)NO)c3ccc(Cl)cc3Cl)=NC2=O)o1` (stereo not drawn) reads 5.5 µM.

Compound `CCc1ccc(/C=C2\SC(NC(c3ccccc3)c3nn[nH]n3)=NC2=O)o1` (stereo not drawn) had a concentration for half-maximal inhibition (IC50) of 19 µM. The result for `CCc1ccc(/C=C2\SC(NC(C(=O)O)C3(C)CCCC3)=NC2=O)o1` (stereo not drawn) reads above 100 µM; that for `CCc1ccc(/C=C2\SC(NC(C(=O)O)c3ccc(F)c(Cl)c3)=NC2=O)o1` (stereo not drawn), 24 µM; that for `CCc1ccc(/C=C2\SC(NC(c3ccc(C)cc3)c3nn[nH]n3)=NC2=O)o1` (stereo not drawn), 14 µM. The result for `CCc1ccc(/C=C2\SC(NC(C(=O)O)c3ccc(C)cc3)=NC2=O)o1` (stereo not drawn) reads 11 µM; that for `CCc1ccc(/C=C2\SC(NC(Cc3ccccc3)C(=O)O)=NC2=O)o1` (stereo not drawn), 68 µM; that for `CCc1ccc(/C=C2\SC(NC(C(=O)O)c3ccc(Cl)cc3Cl)=NC2=O)o1` (stereo not drawn), 7.6 µM. The result for `CCc1ccc(/C=C2\SC(N[C@H](C(=O)O)c3ccc(F)cc3)=NC2=O)o1` (stereo in doubt) reads 3 µM. Turning to `CCc1ccc(/C=C2\SC(N[C@H](CC(=O)O)c3ccc(C#N)cc3)=NC2=O)o1` (stereo in doubt), the IC50 is above 100 µM. The result for `CCc1ccc(/C=C2\SC(N[C@H](CC(=O)O)c3ccc(C)cc3)=NC2=O)o1` (stereo in doubt) reads 27 µM; that for `CCc1ccc(/C=C2\SC(N[C@H](C(=O)O)C3CCCCC3)=NC2=O)o1` (stereo in doubt), 25 µM; that for `CCc1ccc(/C=C2\SC(N[C@H](C(=O)O)c3ccccc3)=NC2=O)o1` (stereo in doubt), 55 µM. The result for `CCc1ccc(/C=C2\SC(N[C@H](CC(=O)O)c3cccnc3)=NC2=O)o1` (stereo in doubt) reads above 100 µM; that for `CCc1ccc(/C=C2\SC(N[C@H](CC(=O)O)c3ccccc3)=NC2=O)o1` (stereo in doubt), 59 µM. Take `CCc1ccc(/C=C2\SC(N[C@H](C(N)=O)c3ccc(F)cc3)=NC2=O)o1` (stereo in doubt): the IC50 was determined as 16 µM. `CCc1ccc(/C=C2\SC(N[C@@H](CC(=O)O)c3ccc(Cl)cc3Cl)=NC2=O)o1` (stereo in doubt) showed a concentration for half-maximal inhibition (IC50) of 9 µM.

`CCc1ccc(/C=C2\SC(N[C@H](CC(=O)O)c3ccc(Cl)cc3Cl)=NC2=O)o1` (stereo in doubt) displayed a concentration for half-maximal inhibition (IC50) of 8.5 µM. The result for `CCc1ccc(/C=C2\SC(N[C@H](C(=O)O)c3ccc(O)cc3)=NC2=O)o1` (stereo in doubt) reads 43 µM.

With `CCc1ccc(/C=C2\SC(N[C@H](CC(=O)O)c3ccc(Br)cc3)=NC2=O)o1` (stereo in doubt), the IC50 turned out to be 16.5 µM. Against the preceding compound, the IC50 is about 2.6-fold lower. The result for `CCc1ccc(/C=C2\SC(N[C@H](Cc3nn[nH]n3)c3ccccc3)=NC2=O)o1` (stereo in doubt) reads 24 µM; that for `CCc1ccc(/C=C2\SC(N[C@@H](CC(=O)O)c3ccc(F)cc3)=NC2=O)o1` (stereo in doubt), 13 µM; that for `CCc1ccc(/C=C2\SC(N[C@H](CC(=O)O)c3ccc(F)cc3)=NC2=O)o1` (stereo in doubt), 44 µM. The result for `CCc1ccc(/C=C2\SC(N[C@@H](C(=O)O)c3ccc(F)cc3)=NC2=O)o1` (stereo in doubt) [VALEANT] reads 50 µM.
